Tests used:
Assay type in all cases: in vivo
[1] = system: Surinamgrass (BRADC; Brachiaria decumbens); experiment: Test H postemergence, mixtures of Cpd. No. 20 with atrazine or glyphosate
Excerpt: (§1) This test evaluated the effect of mixtures of Cpd. No. 20 with atrazine or glyphosate on several plant species. Seeds of plant species selected from corn (ZEAMD; Zea mays, cv. ‘Pioneer 1184’), soybean (GLXMA; Glycine max, cv. Pioneer 35T58), giant foxtail (SETFA; Setaria faberi), Surinamgrass (BRADC; Brachiaria decumbens), fall panicum (PANDI; Panicum dichotomiflorum), velvetleaf (ABUTH; Abutilon threophrasti), mare's tail (ERICA; Conyza canadensis), barnyardgrass (ECHCG; Echinochloa crus-galli), large crabgrass (DIGSA; Digitaria sanguinalis), palmer amaranth (AMAPA; Amaranthus palmeri), common waterhemp (AMATU; Amaranthus rudis), E. black nightshade (SOLPT; Solanum ptycanthum), and common ragweed (AMBEL; Ambrosia artemisiifolia) were planted in pots containing Redi-Earth® planting medium (Scotts Company, 14111 Scottslawn Road, Marysville, Ohio 43041) comprising spaghnum peat moss, vermiculite, wetting agent and starter nutrients and treated postemergence using test chemicals formulated in a non-phytotoxic solvent mixture which included a surfactant. Plants ranged in height from 2 to 10 cm and were in the one- to two-leaf stage for the postemergence treatment. Treated plants and untreated controls were maintained in a greenhouse for approximately 14 d, after which time all treated plants were compared to untreated controls and visually evaluated for injury. Plant response ratings, summarized in Tables H1 & H2, are based on a 0 to 100 scale where 0 is no effect and 100 is complete control. A dash (-) response means no test result. Test results are presented as a mean of 4 reps.

[2] = system: common ragweed (AMBEL; Ambrosia artemisiifolia); experiment: as above
Excerpt: as §1

[3] = system: common waterhemp (AMATU; Amaranthus rudis); experiment: as above
Excerpt: as §1

[4] = system: giant foxtail (SETFA; Setaria faberi); experiment: as above
Excerpt: as §1

[5] = system: large crabgrass (DIGSA; Digitaria sanguinalis); experiment: as above
Excerpt: as §1

[6] = system: soybean (GLXMA; Glycine max, cv. Pioneer 35T58); experiment: as above
Excerpt: as §1

[7] = system: velvetleaf (ABUTH; Abutilon threophrasti); experiment: as above
Excerpt: as §1

[8] = system: common ragweed (AMBEL; Ambrosia artemisiifolia); experiment: Test K pre-/postemergence, mixtures of Cpd. No. 20 with metribuzin or rimsulfuron
Excerpt: (§2) This test evaluated the effect of mixtures of Cpd. No. 20 with metribuzin or rimsulfuron on several plant species. Seeds of plant species selected from corn (ZEAMD; Zea mays, cv. ‘Pioneer 1184’), soybean (GLXMA; Glycine max, cv. Pioneer 35T58), giant foxtail (SETFA; Setaria faberi), palmer amaranth (AMAPA; Amaranthus palmeri), common waterhemp (AMATU; Amaranthus rudis), mare's tail (ERICA; Conyza canadensis), and common ragweed (AMBEL; Ambrosia artemisiifolia) were planted in pots containing Tama Silt Loam soil and treated preemergence with a directed soil spray using test chemicals formulated in a non-phytotoxic solvent mixture which included a surfactant.
(§3) At the same time, plants selected from these crop and weed species were planted in pots containing Redi-Earth® planting medium (Scotts Company, 14111 Scottslawn Road, Marysville, Ohio 43041) comprising spaghnum peat moss, vermiculite, wetting agent and starter nutrients and treated postemergence with test chemicals formulated in the same manner. Plants ranged in height from 2 to 10 cm and were in the one- to two-leaf stage for the postemergence treatment. Treated plants and untreated controls were maintained in a greenhouse for approximately 14-21 d, after which time all treated plants were compared to untreated controls and visually evaluated for injury. Plant response ratings, summarized in Tables K1 to K4, are based on a 0 to 100 scale where 0 is no effect and 100 is complete control. A dash (-) response means no test result. Test results are presented as a mean of 4 reps.

[9] = system: common waterhemp (AMATU; Amaranthus rudis); experiment: as above
Excerpt: as §2, §3

[10] = system: giant foxtail (SETFA; Setaria faberi); experiment: as above
Excerpt: as §2, §3

[11] = system: mare's tail (ERICA; Conyza canadensis); experiment: as above
Excerpt: as §2, §3

[12] = system: palmer amaranth (AMAPA; Amaranthus palmeri); experiment: as above
Excerpt: as §2, §3

[13] = system: soybean (GLXMA; Glycine max, cv. Pioneer 35T58); experiment: as above
Excerpt: as §2, §3

Cc1ccc2ccc(C)c(-c3c(O)c(Cl)nn(C)c3=O)c2c1 [Cpd. No. 20, 6-chloro-4-(2,7-dimethyl-1-naphthalenyl)-5-hydroxy-2-methyl-3(2H)-pyridazinone]
Observed result (plant response rating), BRADC ([1]; applied alone at 31 g a.i./ha): 73 | Observed result (plant response rating), BRADC ([1]; applied alone at 62 g a.i./ha): 84 | Observed result (plant response rating), BRADC ([1]; applied alone at 125 g a.i./ha): 93 | Observed result (plant response rating), AMBEL ([2]; applied alone at 31 g a.i./ha): 89 | Observed result (plant response rating), AMBEL ([2]; applied alone at 62 g a.i./ha): 94 | Observed result (plant response rating), AMBEL ([2]; applied alone at 125 g a.i./ha): 98 | Observed result (plant response rating), AMATU ([3]; applied alone at 31 g a.i./ha): 70 | Observed result (plant response rating), AMATU ([3]; applied alone at 62 g a.i./ha): 80 | Observed result (plant response rating), AMATU ([3]; applied alone at 125 g a.i./ha): 80 | Observed result (plant response rating), SETFA ([4]; applied alone at 31 g a.i./ha): 71 | Observed result (plant response rating), SETFA ([4]; applied alone at 62 g a.i./ha): 79 | Observed result (plant response rating), SETFA ([4]; applied alone at 125 g a.i./ha): 80 | Observed result (plant response rating), DIGSA ([5]; applied alone at 31 g a.i./ha): 34 | Observed result (plant response rating), DIGSA ([5]; applied alone at 62 g a.i./ha): 29 | Observed result (plant response rating), DIGSA ([5]; applied alone at 125 g a.i./ha): 36 | Observed result (plant response rating), GLXMA ([6]; applied alone at 31 g a.i./ha): 30 | Observed result (plant response rating), GLXMA ([6]; applied alone at 62 g a.i./ha): 21 | Observed result (plant response rating), GLXMA ([6]; applied alone at 125 g a.i./ha): 18 | Observed result (plant response rating), ABUTH ([7]; applied alone at 31 g a.i./ha): 76 | Observed result (plant response rating), ABUTH ([7]; applied alone at 62 g a.i./ha): 89 | Observed result (plant response rating), ABUTH ([7]; applied alone at 125 g a.i./ha): 94 | AMBEL plant response rating, 0 to 100 scale ([8]; postemergence, 8 g a.i./ha): 82 | AMBEL plant response rating, 0 to 100 scale ([8]; postemergence, 16 g a.i./ha): 82 | AMBEL plant response rating, 0 to 100 scale ([8]; postemergence, 31 g a.i./ha): 92 | AMBEL plant response rating, 0 to 100 scale ([8]; postemergence, 62 g a.i./ha): 97 | AMBEL plant response rating, 0 to 100 scale ([8]; preemergence, 8 g a.i./ha): 0 | AMBEL plant response rating, 0 to 100 scale ([8]; preemergence, 16 g a.i./ha): 26 | AMBEL plant response rating, 0 to 100 scale ([8]; preemergence, 31 g a.i./ha): 55 | AMBEL plant response rating, 0 to 100 scale ([8]; preemergence, 62 g a.i./ha): 100 | AMATU plant response rating, 0 to 100 scale ([9]; postemergence, 8 g a.i./ha): 50 | AMATU plant response rating, 0 to 100 scale ([9]; postemergence, 16 g a.i./ha): 57 | AMATU plant response rating, 0 to 100 scale ([9]; postemergence, 31 g a.i./ha): 68 | AMATU plant response rating, 0 to 100 scale ([9]; postemergence, 62 g a.i./ha): 62 | AMATU plant response rating, 0 to 100 scale ([9]; preemergence, 8 g a.i./ha): 0 | AMATU plant response rating, 0 to 100 scale ([9]; preemergence, 16 g a.i./ha): 0 | AMATU plant response rating, 0 to 100 scale ([9]; preemergence, 31 g a.i./ha): 20 | AMATU plant response rating, 0 to 100 scale ([9]; preemergence, 62 g a.i./ha): 30 | SETFA plant response rating, 0 to 100 scale ([10]; postemergence, 8 g a.i./ha): 37 | SETFA plant response rating, 0 to 100 scale ([10]; postemergence, 16 g a.i./ha): 62 | SETFA plant response rating, 0 to 100 scale ([10]; postemergence, 31 g a.i./ha): 77 | SETFA plant response rating, 0 to 100 scale ([10]; postemergence, 62 g a.i./ha): 92 | SETFA plant response rating, 0 to 100 scale ([10]; preemergence, 8 g a.i./ha): 6 | SETFA plant response rating, 0 to 100 scale ([10]; preemergence, 16 g a.i./ha): 50 | SETFA plant response rating, 0 to 100 scale ([10]; preemergence, 31 g a.i./ha): 84 | SETFA plant response rating, 0 to 100 scale ([10]; preemergence, 62 g a.i./ha): 100 | ERICA plant response rating, 0 to 100 scale ([11]; postemergence, 8 g a.i./ha): 77 | ERICA plant response rating, 0 to 100 scale ([11]; postemergence, 16 g a.i./ha): 85 | ERICA plant response rating, 0 to 100 scale ([11]; postemergence, 31 g a.i./ha): 92 | ERICA plant response rating, 0 to 100 scale ([11]; postemergence, 62 g a.i./ha): 93 | ERICA plant response rating, 0 to 100 scale ([11]; preemergence, 8 g a.i./ha): 89 | ERICA plant response rating, 0 to 100 scale ([11]; preemergence, 16 g a.i./ha): 100 | ERICA plant response rating, 0 to 100 scale ([11]; preemergence, 31 g a.i./ha): 100 | ERICA plant response rating, 0 to 100 scale ([11]; preemergence, 62 g a.i./ha): 100 | AMAPA plant response rating, 0 to 100 scale ([12]; postemergence, 8 g a.i./ha): 28 | AMAPA plant response rating, 0 to 100 scale ([12]; postemergence, 16 g a.i./ha): 38 | AMAPA plant response rating, 0 to 100 scale ([12]; postemergence, 31 g a.i./ha): 33 | AMAPA plant response rating, 0 to 100 scale ([12]; postemergence, 62 g a.i./ha): 60 | AMAPA plant response rating, 0 to 100 scale ([12]; preemergence, 8 g a.i./ha): 0 | AMAPA plant response rating, 0 to 100 scale ([12]; preemergence, 16 g a.i./ha): 26 | AMAPA plant response rating, 0 to 100 scale ([12]; preemergence, 31 g a.i./ha): 50 | AMAPA plant response rating, 0 to 100 scale ([12]; preemergence, 62 g a.i./ha): 45 | GLXMA plant response rating, 0 to 100 scale ([13]; postemergence, 8 g a.i./ha): 0 | GLXMA plant response rating, 0 to 100 scale ([13]; postemergence, 16 g a.i./ha): 0 | GLXMA plant response rating, 0 to 100 scale ([13]; postemergence, 31 g a.i./ha): 8 | GLXMA plant response rating, 0 to 100 scale ([13]; postemergence, 62 g a.i./ha): 13 | GLXMA plant response rating, 0 to 100 scale ([13]; preemergence, 8 g a.i./ha): 0 | GLXMA plant response rating, 0 to 100 scale ([13]; preemergence, 16 g a.i./ha): 0 | GLXMA plant response rating, 0 to 100 scale ([13]; preemergence, 31 g a.i./ha): 0 | GLXMA plant response rating, 0 to 100 scale ([13]; preemergence, 62 g a.i./ha): 0
